Assay results taken from patent publication US9643970B2, “Substituted imidazo [1,5-a]pyrazines as PDE9 inhibitors” (H Lundbeck A/S, priority 2012, dated 2017).
Where two headings read alike, the source gives them in different places.

Molecular target: PDE9 (Homo sapiens, UniProt O76083)
Experiment: PDE9 inhibition assay
Type: biochemical
Protocol: Reactions are initiated by addition of the cyclic nucleotide substrate, and reactions are allowed to proceed for one hr at room temperature before being terminated through mixing with 15 uL 8 mg/mL yttrium silicate SPA beads (Amersham). […] IC50 values were calculated by non linear regression using XLfit (IDBS).

[1] = SPA assay, 10 nM 3H-cAMP, 1 hour incubation, read-out: IC50

PDE9, sequence (O76083 whole entry): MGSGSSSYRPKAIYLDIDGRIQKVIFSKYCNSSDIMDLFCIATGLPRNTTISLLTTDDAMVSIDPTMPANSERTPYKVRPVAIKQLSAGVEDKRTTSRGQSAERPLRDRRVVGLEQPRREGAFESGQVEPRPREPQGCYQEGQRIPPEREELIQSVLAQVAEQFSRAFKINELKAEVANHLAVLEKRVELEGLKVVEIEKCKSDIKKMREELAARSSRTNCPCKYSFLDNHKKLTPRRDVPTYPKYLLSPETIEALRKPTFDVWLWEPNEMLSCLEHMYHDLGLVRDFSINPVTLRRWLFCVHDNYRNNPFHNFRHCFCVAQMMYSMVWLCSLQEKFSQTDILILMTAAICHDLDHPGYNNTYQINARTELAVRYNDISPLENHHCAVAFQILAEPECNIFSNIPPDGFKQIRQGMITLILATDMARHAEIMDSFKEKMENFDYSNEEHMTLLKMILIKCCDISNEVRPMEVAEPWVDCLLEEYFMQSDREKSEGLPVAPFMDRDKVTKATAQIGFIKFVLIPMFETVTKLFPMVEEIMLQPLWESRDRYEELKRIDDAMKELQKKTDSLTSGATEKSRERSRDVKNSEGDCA

SMILES | IC50 [1] | IC50
O=c1[nH]c(CN2CC(c3ncccn3)C2)cn2c(-c3ccc(F)cc3)ncc12 [Compound 53, 3-(4-fluorophenyl)-6-[(3-pyrimidin-2-ylazetidin-1-yl)methyl]-7h-imidazo[1,5-a]pyrazin-8-one] | 22 nM | –
O=c1[nH]c(CN2CC(Oc3ncccn3)C2)cn2c(-c3ccccc3)ncc12 [Compound 5, 3-phenyl-6-[(3-pyrimidin-2-yloxyazetidin-1-yl)methyl]-7h-imidazo[1,5-a]pyrazin-8-one] | – | 30 nM
COC1CN(C(C)c2cn3c(-c4ccccc4)ncc3c(=O)[nH]2)C1 (stereo not drawn) [Compound 20, 6-[1-(3-methoxyazetidin-1-yl)ethyl]-3-phenyl-7h-imidazo[1,5-a]pyrazin-8-one] | 17 nM | –
O=c1[nH]c(CN2CC(c3ccc(C(F)(F)F)cn3)C2)cn2c(-c3ccc(F)cc3)ncc12 [Compound 77, 3-(4-fluorophenyl)-6-[[3-[5-(trifluoromethyl)-2-pyridyl]azetidin-1-yl]methyl]-7h-imidazo[1,5-a]pyrazin-8-one] | 4 nM | –
CC1CN(Cc2ccc(F)cc2)CC1c1cn2c(-c3ccc(Cl)cc3)nc(Br)c2c(=O)[nH]1 (stereo not drawn) [Compound 111, 1-bromo-3-(4-chlorophenyl)-6-[1-[(4-fluorophenyl)methyl]-4-methyl-pyrrolidin-3-yl]-7h-imidazo[1,5-a]pyrazin-8-one] | 74 nM | –
N#Cc1ccc(C2CN(Cc3cn4c(-c5ccc(F)cc5)ncc4c(=O)[nH]3)C2)cc1 [Compound 96, 4-[1-[[3-(4-fluorophenyl)-8-oxo-7h-imidazo[1,5-a]pyrazin-6-yl]methyl]azetidin-3-yl]benzonitrile] | – | 2 nM
O=c1[nH]c(CN2CC(Oc3ccncc3)C2)cn2c(-c3ccc(F)cc3)ncc12 [Compound 87, 3-(4-fluorophenyl)-6-[[3-(4-pyridyloxy)azetidin-1-yl]methyl]-7h-imidazo[1,5-a]pyrazin-8-one] | 42 nM | –
O=c1[nH]c(CN2CC(Oc3cccc(C(F)(F)F)c3)C2)cn2c(-c3ccc(F)cc3)ncc12 [Compound 95, 3-(4-fluorophenyl)-6-[[3-[3-(trifluoromethyl)phenoxy]azetidin-1-yl]methyl]-7h-imidazo[1,5-a]pyrazin-8-one] | – | 97 nM
O=c1[nH]c(CN2CC(Oc3cccc(F)n3)C2)cn2c(-c3ccccc3)ncc12 [Compound 6, 6-[[3-[(6-fluoro-2-pyridyl)oxy]azetidin-1-yl]methyl]-3-phenyl-7h-imidazo[1,5-a]pyrazin-8-one] | 31 nM | –
CC(C)OC1CN(C(C)c2cn3c(C4CCOCC4)ncc3c(=O)[nH]2)C1 (stereo not drawn) [Compound 117, 6-[1-(3-isopropoxyazetidin-1-yl)ethyl]-3-tetrahydropyran-4-yl-7h-imidazo[1,5-a]pyrazin-8-one] | – | 93 nM
O=c1[nH]c(CN2CC(c3ccc(F)cc3)C2)cn2c(-c3ccc(F)cc3)ncc12 [Compound 76, 3-(4-fluorophenyl)-6-[[3-(4-fluorophenyl)azetidin-1-yl]methyl]-7h-imidazo[1,5-a]pyrazin-8-one] | 33 nM | –
CC1CN(Cc2ccccn2)CC1c1cn2c(-c3ccc(F)cc3)ncc2c(=O)[nH]1 (stereo not drawn) [Compound 114, 3-(4-fluorophenyl)-6-[4-methyl-1-(2-pyridylmethyl)pyrrolidin-3-yl]-7h-imidazo[1,5-a]pyrazin-8-one] | 7 nM | –
